# Measurements as given in patent publication EP0615756B1 (priority 1993, dated 1994).
# Structures can show the parent of a compound that is named as a salt. Where two headings read alike, the source gives them in different places.
# How the values were obtained:
# [1] = test system: Sprague-Dawley rats; experiment: Rat cold ethanol tail-flick test; type: in vivo; details: for % Analgesic effect 10% / % Analgesic effect 20% / % Analgesic effect 50%: 25 micromole per kg, intramuscularly
# [2] = cited from earlier work
# [3] = Figure 15; between 17 and 28 hours, p<0.05
# [4] = test system: New Zealand white rabbits; experiment: Paw pressure test; type: in vivo; details: Figure 20
# [5] = Percutaneous transport study in modified Franz diffusion cells; details: 37 °C
# [6] = Plasma concentration after intramuscular injection (HPLC) in the paw pressure study; details: for half-life: rabbit, plasma, im
# [7] = in sesame oil, duration in days
# [8] = Anesthesiology, vol.74, 53, 1991
smiles,measurement,setting,value
CCC(=O)Oc1ccc2c3c1O[C@H]1[C@@H](O)CC[C@@]4(O)[C@@H](C2)N(CC2CCC2)CC[C@]314 [nalbuphine propionate],% Analgesic effect 10%,[1]; duration in hours,12 H
same,% Analgesic effect 20%,[1]; duration in hours,11 H
same,% Analgesic effect 50%,[1]; duration in hours,10 H
same,50% analgesic effect,[1]; table 2,10 h
CCCCCCC(=O)Oc1ccc2c3c1O[C@H]1[C@@H](O)CC[C@@]4(O)[C@@H](C2)N(CC2CCC2)CC[C@]314 [nalbuphine enanthate],% Analgesic effect 10%,[1]; [7],3.6 D
same,% Analgesic effect 20%,[1]; [7],3.4 D
same,% Analgesic effect 50%,[1]; [7],3.0 D
CO[C@]12CC[C@@]3(C[C@@H]1[C@](C)(O)C(C)(C)C)[C@H]1Cc4ccc(O)c5c4[C@@]3(CCN1CC1CC1)[C@H]2O5 [buprenorphine],dose needed to elicit the same analgesic effect,[2]; [8],0.3 mg
Oc1ccc2c3c1O[C@H]1[C@@H](O)CC[C@@]4(O)[C@@H](C2)N(CC2CCC2)CC[C@]314 [nalbuphine],amount of released nalbuphine free base,[3],less in preparations with sesame oil than with peanut oil ester and the control
CCCCCCCCCC(=O)Oc1ccc2c3c1O[C@H]1[C@@H](O)CC[C@@]4(O)[C@@H](C2)N(CC2CCC2)CC[C@]314 [nalbuphine decanoate],% Analgesic effect 10%,[1]; [7],8.2 D
same,% Analgesic effect 20%,[1]; [7],7.5 D
same,% Analgesic effect 50%,[1]; [7],6.7 D
same,10% analgesic effect,"[1]; table 2, longest duration",197 h
same,50% analgesic effect,"[1]; table 2, longest duration",161 h
same,analgesic effect for intramuscular injection (duration),[4]; 0.,18 h
same,cumulative amount,"[5]; under 24 hours, 5% nalbuphine decanoate in a jel of 2% CMC Na",1.04±0.30 µ g/cm^2
same,cumulative amount,"[5]; under 24 hours, jell containing 10% terpineol (5% nalbuphine decanoate, 2% CMC Na)",3.31±0.45 µg/cm^2
same,cumulative amount,"[5]; under 48 hours, 5% nalbuphine decanoate in a jel of 2% CMC Na",1.67±0.38 µg/cm^2
same,cumulative amount,"[5]; under 48 hours, jell containing 10% terpineol (5% nalbuphine decanoate, 2% CMC Na)",5.78±0.81 µ g/cm^2
same,cumulative amount,"[5]; under 72 hours, 5% nalbuphine decanoate in a jel of 2% CMC Na",3.17±0.35 µ g/cm^2
same,cumulative amount,"[5]; under 72 hours, jell containing 10% terpineol (5% nalbuphine decanoate, 2% CMC Na)",9.87±1.44 µg/cm^2
same,half-life,[6]; […],26 h
same,increase of duration compared with nalbuphine hydrochloride,"[6]; rabbits, Figure 19",30 times
"Oc1ccc2c3c1O[C@H]1[C@@H](O)CC[C@@]4(O)[C@@H](C2)N(CC2CCC2)CC[C@]314 [nalbuphine hydrochloride, reference compound]",% Analgesic effect 10%,[1]; duration in hours,5.0 H
same,% Analgesic effect 20%,[1]; duration in hours,4.4 H
same,% Analgesic effect 50%,[1]; duration in hours,2.5 H
same,10% analgesic effect,"[1]; rats, intramuscular injection",2.4 h
same,20% analgesic effect,"[1]; rats, intramuscular injection",2.1 h
same,50% analgesic effect,"[1]; rats, intramuscular injection, 25 micromole/kg",1.1 h
same,10% analgesic effect,[1]; table 2,12 h
same,50% analgesic effect,[1]; table 2,2.5 h
same,analgesic effect for intramuscular injection (duration),[4]; 10 mg/kg,0.75 h
same,half-life,[6],0.85 h
Oc1ccc2c(c1)[C@@]13CCCC[C@@]1(O)[C@@H](C2)N(CC1CCC1)CC3 [butorphanol],dose needed to elicit the same analgesic effect,[2]; [8],2 mg
O=C(Oc1ccc2c3c1O[C@H]1[C@@H](O)CC[C@@]4(O)[C@@H](C2)N(CC2CCC2)CC[C@]314)c1ccccc1 [nalbuphine benzoate],% Analgesic effect 10%,[1]; [7],4.0 D
same,% Analgesic effect 20%,[1]; [7],4.0 D
same,% Analgesic effect 50%,[1]; [7],3.5 D
CN1CC[C@]23c4c5ccc(O)c4O[C@H]2[C@@H](O)C=C[C@H]3[C@H]1C5 [morphine],dose needed to elicit the same analgesic effect,[2]; in vivo,10 mg
CC(C)(C)C(=O)Oc1ccc2c3c1O[C@H]1[C@@H](O)CC[C@@]4(O)[C@@H](C2)N(CC2CCC2)CC[C@]314 [nalbuphine pivalate],% Analgesic effect 10%,[1]; [7],3.8 D
same,% Analgesic effect 20%,[1]; [7],3.6 D
same,% Analgesic effect 50%,[1]; [7],3.2 D
